# Measurements taken from the C3SDB collision cross section collection.
# Several values for one entry are separate records, joined by “and”; a condition that tells them apart may be missing. Equal values may be shown once.
# Conditions: [M+H-H2O]+; instrument: DT; stepped-field
row,Structure (SMILES),collision cross section (N2) [Å²]
1,OCC1OC(OC2C(CO)OC(OC3C(CO)OC(OC4C(CO)OC(OC5C(CO)OC(OC6C(CO)OC(OC7C(CO)OC(OC8C(CO)OC(OC9C(CO)OC(OC%10C(CO)OC(O)C(O)C%10O)C(O)C9O)C(O)C8O)C(O)C7O)C(O)C6O)C(O)C5O)C(O)C4O)C(O)C3O)C(O)C2O)C(O)C(O)C1O (stereo not drawn) [(Hex)10],383.4

# Same assay, conditions: [M+H]+; instrument: DT; stepped-field
row,Structure (SMILES),collision cross section (N2)
1,CC(C)C[C@H](NC(=O)[C@H](C)NC(=O)[C@@H](N)CCC(=O)O)C(=O)N[C@@H](CC(=O)O)C(=O)N[C@@H](Cc1ccccc1)C(=O)N[C@@H](Cc1ccccc1)C(=O)N[C@@H](C)C(=O)N[C@@H](CCCNC(=N)N)C(=O)O [EALDFFAR],305.9 Å²
2,CCC(C)[C@H](NC(=O)[C@H](CC(N)=O)NC(=O)[C@H](CCC(=O)O)NC(=O)[C@H](C)NC(=O)[C@H](CC(C)C)NC(=O)[C@@H](N)CC(N)=O)C(=O)N[C@@H](CO)C(=O)N[C@@H](CCCNC(=N)N)C(=O)O (stereo partly drawn) [NLAENISR],291.7 Å²
3,CCC(C)[C@H](N)C(=O)NCC(=O)N[C@@H](CC(=O)O)C(=O)N[C@@H](Cc1ccc(O)cc1)C(=O)N[C@@H](C)C(=O)NCC(=O)N[C@H](C(=O)N[C@@H](CCCCN)C(=O)O)C(C)CC (stereo partly drawn) [IGDYAGIK],285.9 Å²
4,CC(C)[C@H](N)C(=O)N[C@@H](Cc1ccccc1)C(=O)N[C@@H](C)C(=O)N[C@@H](CC(=O)O)C(=O)N[C@@H](Cc1ccc(O)cc1)C(=O)N[C@@H](CCC(=O)O)C(=O)N[C@@H](CCC(=O)O)C(=O)N[C@@H](Cc1ccc(O)cc1)C(=O)N[C@H](C(=O)N[C@@H](CCCCN)C(=O)O)C(C)C [VFADYEEYVK],366.4 Å²
5,CC(C)C[C@H](NC(=O)[C@H](CCC(=O)O)NC(=O)[C@@H](N)CCC(=O)O)C(=O)N[C@@H](Cc1ccccc1)C(=O)N[C@@H](CCCNC(=N)N)C(=O)O [EELFR],254.1 Å²
6,CC(C)[C@H](NC(=O)CN)C(=O)N[C@@H](Cc1ccccc1)C(=O)N[C@@H](CCCNC(=N)N)C(=O)O [GVFR],214.8 Å²
7,CC(C)C[C@H](NC(=O)[C@H](CO)NC(=O)[C@@H](N)C(C)C)C(=O)N[C@@H](C)C(=O)N[C@@H](CCC(=O)O)C(=O)N[C@@H](CCCCN)C(=O)O [VSLAEK],249 Å²
8,OCC1OC(OC2C(CO)OC(OC3C(CO)OC(OC4C(CO)OC(OC5C(CO)OC(OC6C(CO)OC(OC7C(CO)OC(OC8C(CO)OC(OC9C(CO)OC(OC%10C(CO)OC(O)C(O)C%10O)C(O)C9O)C(O)C8O)C(O)C7O)C(O)C6O)C(O)C5O)C(O)C4O)C(O)C3O)C(O)C2O)C(O)C(O)C1O (stereo not drawn) [(Hex)10],365.1 Å² and 390.3 Å²
9,CC(C)C[C@H](NC(=O)[C@H](C)NC(=O)[C@H](CC(=O)O)NC(=O)[C@H](C)NC(=O)[C@H](C)N)C(=O)N[C@@H](CC(C)C)C(=O)N[C@@H](CC(C)C)C(=O)N[C@@H](CCCCN)C(=O)O [AADALLLK],291.8 Å² and 277.8 Å²
10,CCC(C)[C@H](NC(=O)[C@@H](N)C(C)C)C(=O)N[C@@H](Cc1ccccc1)C(=O)N[C@@H](CC(C)C)C(=O)N[C@@H](CCC(=O)O)C(=O)N[C@@H](CC(N)=O)C(=O)N[C@@H](Cc1ccc(O)cc1)C(=O)N[C@@H](CCCNC(=N)N)C(=O)O (stereo partly drawn) [VIFLENYR],318.3 Å²
11,CCC(C)[C@H](NC(=O)[C@H](CC(N)=O)NC(=O)[C@H](C)N)C(=O)N[C@@H](CC(=O)O)C(=O)N[C@H](C(=O)N[C@@H](CCCCN)C(=O)O)C(C)C (stereo partly drawn) [ANIDVK],248.1 Å²

# Same assay, conditions: [M+K]+; instrument: DT; stepped-field
row,Structure (SMILES),collision cross section (N2) [Å²]
1,CCCCCCC/C=C\CCCCCCCC(=O)O[C@H](COC(=O)CCCCCCCCC/C=C\CCCCCCCC)COP(=O)(O)OC[C@H](N)C(=O)O [PS(37:2)],293
2,CCCCC/C=C\C/C=C\C/C=C\CCCCC(=O)O[C@H](COC(=O)CCCCCCC/C=C\CCCCC)COP(=O)([O-])OCC[N+](C)(C)C [PC(33:4)],287.5
3,CCCCCCC=CCC=CCC(=O)OC[C@H](COP(=O)(O)OCCN)OC(=O)CC=CCC=CCCCCCC [PE(26:4)],245.4
4,CC/C=C\C/C=C\C/C=C\C/C=C\C/C=C\C/C=C\CCC(=O)O[C@H](COC(=O)CCCCCCC/C=C\CCCCC)COP(=O)([O-])OCC[N+](C)(C)C [PC(37:7)],296.6
5,CCCC/C=C\C/C=C\CCCCCCCC(=O)OC[C@H](COP(=O)([O-])OCC[N+](C)(C)C)OC(=O)CCCC/C=C\C/C=C\C/C=C\CCCCC [PC(35:5)],293.8
6,CC/C=C\C/C=C\C/C=C\C/C=C\CCCCC(=O)OC[C@H](COP(=O)([O-])OCC[N+](C)(C)C)OC(=O)CCCCCCCCCCCCCCCC [PC(35:4)],294.5
7,CCCC=CCC=CCC=CCC(=O)OC[C@H](COP(=O)(O)OCCN)OC(=O)CC=CCC=CCC=CCCC [PE(26:6)],241.7
8,OC[C@H]1O[C@H](O[C@H]2[C@H](O)[C@@H](O)[C@@H](O[C@H]3[C@H](O)[C@@H](O)[C@@H](O[C@H]4[C@H](O)[C@@H](O)[C@@H](O[C@H]5[C@H](O)[C@@H](O)[C@@H](O[C@H]6[C@H](O)[C@@H](O)[C@@H](O)O[C@@H]6CO)O[C@@H]5CO)O[C@@H]4CO)O[C@@H]3CO)O[C@@H]2CO)[C@H](O)[C@@H](O)[C@@H]1O [Maltohexaose],293.3
9,CCCCCCCCCCCCCCCCCCC(=O)O[C@H](COC(=O)CCCCCCCCCCCCCCC)COP(=O)(O)OCCN [PE(35:0)],286.2
10,CC(=O)N[C@H]1[C@H](OC2[C@@H](O)[C@H](O[C@@H]([C@H](O[C@@H]3O[C@@H](C)[C@@H](O)[C@@H](O)[C@@H]3O)[C@@H](O)C=O)[C@H](O)CO)O[C@H](CO)[C@@H]2O)O[C@H](CO)[C@@H](O[C@@H]2O[C@@H](C)[C@@H](O)[C@@H](O)[C@@H]2O)[C@@H]1O[C@@H]1O[C@H](CO)[C@H](O)[C@H](O)[C@H]1O (stereo partly drawn) [Lacto-N-Difucohexaose II],305.8
11,CC\C=C/C=C/C=C/C=C\CCCCCCCC(=O)O[C@H](COC(=O)CCCCCCCCCCCCCCC)COP(=O)([O-])OCC[N+](C)(C)C [PC(34:4)],289
